According to publication PMC7846937 (Bioorganic chemistry, 2020):

Tests used:
Assay in all cases: stopped-flow CO2 hydration assay
Format in all cases: biochemical
hCA II = hCA II (Homo sapiens, UniProt P00918)
hCA XII = hCA XII (Homo sapiens, UniProt O43570)
hCA I = hCA I (Homo sapiens, UniProt P00915)
hCA I, sequence (P00915 2-261): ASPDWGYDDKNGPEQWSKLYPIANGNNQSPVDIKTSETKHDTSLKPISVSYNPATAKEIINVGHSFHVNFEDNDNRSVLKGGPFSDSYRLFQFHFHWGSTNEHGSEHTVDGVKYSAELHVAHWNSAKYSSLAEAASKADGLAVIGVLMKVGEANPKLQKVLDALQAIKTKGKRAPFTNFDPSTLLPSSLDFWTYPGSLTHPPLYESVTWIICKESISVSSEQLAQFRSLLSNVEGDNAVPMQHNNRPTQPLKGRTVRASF

hCA XII, sequence (O43570 30-289 limits assumed): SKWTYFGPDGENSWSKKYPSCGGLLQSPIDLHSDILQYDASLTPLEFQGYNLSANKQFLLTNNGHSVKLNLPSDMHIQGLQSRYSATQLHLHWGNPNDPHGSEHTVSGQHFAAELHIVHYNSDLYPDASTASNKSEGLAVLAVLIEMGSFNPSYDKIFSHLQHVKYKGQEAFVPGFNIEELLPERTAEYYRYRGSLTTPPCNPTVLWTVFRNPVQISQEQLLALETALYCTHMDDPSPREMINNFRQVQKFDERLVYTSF

Cc1cc(C(C)C)[n+](-c2cccc(S(N)(=O)=O)c2)c(C(C)C)c1 [19d, 2,6-Diisopropyl-4-methyl-1-(3-sulfamoylphenyl)pyridinium hexafluorophosphate]
Ki (hCA II): 9.6 nM
Ki (hCA XII): 5.5 nM
Ki (hCA I): 33.8 nM

CC(C)c1cc(-c2ccccc2)cc(C(C)C)[n+]1-c1cccc(S(N)(=O)=O)c1 [19m, 2,6-Diisopropyl-4-phenyl-1-(3-sulfamoylphenyl)pyridinium hexafluorophosphate]
Ki (hCA II): 9.3 nM
Ki (hCA XII): 5.8 nM
Ki (hCA I): 41.8 nM

Cc1cc(-c2ccccc2)cc(-c2ccccc2)[n+]1-c1cccc(S(N)(=O)=O)c1 [19o, 2-Methyl-4,6-diphenyl-1-(3-sulfamoyl-phenyl)-pyridinium hexafluorophosphate]
Ki (hCA II): 3.4 nM
Ki (hCA XII): 0.96 nM
Ki (hCA I): 8.5 nM

Cc1cc(C)[n+](-c2cccc(S(N)(=O)=O)c2)c(C)c1C [19t, 2,3,4,6-Tetramethyl-1-(3-sulfamoylphenyl)pyridinium hexafluorophosphate]
Ki (hCA II): 2.6 nM
Ki (hCA XII): 3.4 nM
Ki (hCA I): 54.9 nM

CCCc1cc(C)cc(CCC)[n+]1-c1cccc(S(N)(=O)=O)c1 [19c, 4-Methyl-2,6-di-n-propyl-1-(3-sulfamoylphenyl)pyridinium hexafluorophosphate]
Ki (hCA II): 7.8 nM
Ki (hCA XII): 3.6 nM
Ki (hCA I): 84.5 nM

NS(=O)(=O)c1cccc(-[n+]2c(-c3ccccc3)cc(-c3ccccc3)cc2-c2ccccc2)c1 [19x, 2,4,6-Triphenyl-1-(3-sulfamoylphenyl)pyridinium hexafluorophosphate]
Ki (hCA II): 13 nM
Ki (hCA XII): 21.7 nM
Ki (hCA I): 58 nM

Cc1cc(C)[n+](-c2cccc(S(N)(=O)=O)c2)c(-c2ccccc2)c1 [19v, 2,4-Dimethyl-6-phenyl-1-(3-sulfamoylphenyl)pyridinium hexafluorophosphate]
Ki (hCA II): 8.8 nM
Ki (hCA XII): 4.7 nM
Ki (hCA I): 72.3 nM

Cc1cc(C)[n+](-c2cccc(S(N)(=O)=O)c2)c(C(C)C)c1 [19h, 2-Isopropyl-4,6-dimethyl-1-(3-sulfamoylphenyl)pyridinium hexafluorophosphate]
Ki (hCA II): 10.4 nM
Ki (hCA XII): 7.4 nM
Ki (hCA I): 60.7 nM

CCc1cc(-c2ccccc2)cc(CC)[n+]1-c1cccc(S(N)(=O)=O)c1 [19k, 2,6-Diethyl-4-phenyl-1-(3-sulfamoyl-phenyl)-pyridinium hexafluorophosphate]
Ki (hCA II): 10.2 nM
Ki (hCA XII): 12.1 nM
Ki (hCA I): 71.6 nM

Cc1cc(-c2ccccc2)[n+](-c2cccc(S(N)(=O)=O)c2)c(-c2ccccc2)c1 [19w, 4-Methyl-2,6-diphenyl-1-(3-sulfamoylphenyl)pyridinium hexafluorophosphate]
Ki (hCA II): 6.7 nM
Ki (hCA XII): 8.8 nM
Ki (hCA I): 19.7 nM

CCCCc1cc(-c2ccccc2)cc(CCCC)[n+]1-c1cccc(S(N)(=O)=O)c1 [19n, 2,6-Di-n-butyl-4-phenyl-1-(3-sulfamoyl-phenyl)-pyridinium hexafluorophosphate]
Ki (hCA II): 49.3 nM
Ki (hCA XII): 40.2 nM
Ki (hCA I): 433 nM

CCCc1cc(C)cc(C)[n+]1-c1cccc(S(N)(=O)=O)c1 [19g, 2,4-Dimethyl-6-n-propyl-1-(3-sulfamoylphenyl)pyridinium hexafluorophosphate]
Ki (hCA II): 7.2 nM
Ki (hCA XII): 5.4 nM
Ki (hCA I): 70.1 nM

CCc1cc(C)cc(CC)[n+]1-c1cccc(S(N)(=O)=O)c1 [19b, 2,6-Diethyl-4-methyl-1-(3-sulfamoylphenyl)pyridinium hexafluorophosphate]
Ki (hCA II): 8.5 nM
Ki (hCA XII): 4 nM
Ki (hCA I): 86.3 nM

Cc1cc(C)[n+](-c2cccc(S(N)(=O)=O)c2)c(C)c1 [19a, 2,4,6-Trimethyl-1-(3-sulfamoylphenyl)pyridinium hexafluorophosphate]
Ki (hCA I): 82.1 nM

CCCc1cc(-c2ccccc2)cc(CCC)[n+]1-c1cccc(S(N)(=O)=O)c1 [19l, 2,6-Di-n-propyl-4-phenyl-1-(3-sulfamoyl-phenyl)-pyridinium hexafluorophosphate]
Ki (hCA II): 18 nM
Ki (hCA XII): 21.5 nM
Ki (hCA I): 75.8 nM

CCCCc1cc(C)cc(CCCC)[n+]1-c1cccc(S(N)(=O)=O)c1 [19e, 2,6-Di-n-butyl-4-methyl-1-(3-sulfamoylphenyl)pyridinium hexafluorophosphate]
Ki (hCA II): 58.1 nM
Ki (hCA XII): 51.5 nM
Ki (hCA I): 462 nM

CCc1cc(C)cc(C)[n+]1-c1cccc(S(N)(=O)=O)c1 [19f, 2-Ethyl-4,6-dimethyl-1-(3-sulfamoylphenyl)pyridinium hexafluorophosphate]
Ki (hCA II): 12.9 nM
Ki (hCA XII): 3.7 nM
Ki (hCA I): 63.6 nM

Cc1c2cc(c(C)[n+]1-c1cccc(S(N)(=O)=O)c1)CCCCCCCCC2 [19u, 2,6-Dimethyl-3,5-(1,9-nonane-diyl)-1-(3-sulfamoyl-phenyl)pyridinium hexafluorophosphate]
Ki (hCA II): 39.8 nM
Ki (hCA XII): 25.1 nM
Ki (hCA I): 256 nM

CCCCc1cc(C)cc(C)[n+]1-c1cccc(S(N)(=O)=O)c1 [19i, 2-n-Butyl-4,6-dimethyl-1-(3-sulfamoylphenyl)pyridinium hexafluorophosphate]
Ki (hCA II): 6.8 nM
Ki (hCA XII): 4 nM
Ki (hCA I): 65.1 nM

CCCCc1cc(-c2ccccc2)cc(-c2ccccc2)[n+]1-c1cccc(S(N)(=O)=O)c1 [19s, 2-n-Butyl-4,6-diphenyl-1-(3-sulfamoyl-phenyl)-pyridinium hexafluorophosphate]
Ki (hCA II): 43.9 nM
Ki (hCA XII): 35.2 nM
Ki (hCA I): 137 nM

Cc1cc(-c2ccccc2)cc(C)[n+]1-c1cccc(S(N)(=O)=O)c1 [19j, 2,6-Dimethyl-4-phenyl-1-(3-sulfamoyl-phenyl)-pyridinium hexafluorophosphate]
Ki (hCA II): 1.2 nM
Ki (hCA XII): 0.87 nM
Ki (hCA I): 65.3 nM

CCc1cc(-c2ccccc2)cc(-c2ccccc2)[n+]1-c1cccc(S(N)(=O)=O)c1 [19p, 2-Ethyl-4,6-diphenyl-1-(3-sulfamoyl-phenyl)-pyridinium hexafluorophosphate]
Ki (hCA II): 4 nM
Ki (hCA XII): 1.4 nM
Ki (hCA I): 18 nM
